Experimental data from patent US6972296B2, “Carboxylic acid derivatives that inhibit the binding of integrins to their receptors” (Encysive Pharmaceuticals Inc., priority 1999, dated 2005).
pIC50: −log10 of the molar value.

Legend:
[1] = molecular target: T1, α4β1 integrin (Homo sapiens, UniProt P05556+P13612); experiment: Adhesion of calcein-labeled Ramos cells to CS1 (fibronectin) peptide conjugated ovalbumin; assay type: cell-based; conditions: Ramos cell adhesion to CS1 conjugated ovalbumin
T1 construct: endogenous in cells; host or cells: Ramos cells
T1 sequence (P13612 34-1032): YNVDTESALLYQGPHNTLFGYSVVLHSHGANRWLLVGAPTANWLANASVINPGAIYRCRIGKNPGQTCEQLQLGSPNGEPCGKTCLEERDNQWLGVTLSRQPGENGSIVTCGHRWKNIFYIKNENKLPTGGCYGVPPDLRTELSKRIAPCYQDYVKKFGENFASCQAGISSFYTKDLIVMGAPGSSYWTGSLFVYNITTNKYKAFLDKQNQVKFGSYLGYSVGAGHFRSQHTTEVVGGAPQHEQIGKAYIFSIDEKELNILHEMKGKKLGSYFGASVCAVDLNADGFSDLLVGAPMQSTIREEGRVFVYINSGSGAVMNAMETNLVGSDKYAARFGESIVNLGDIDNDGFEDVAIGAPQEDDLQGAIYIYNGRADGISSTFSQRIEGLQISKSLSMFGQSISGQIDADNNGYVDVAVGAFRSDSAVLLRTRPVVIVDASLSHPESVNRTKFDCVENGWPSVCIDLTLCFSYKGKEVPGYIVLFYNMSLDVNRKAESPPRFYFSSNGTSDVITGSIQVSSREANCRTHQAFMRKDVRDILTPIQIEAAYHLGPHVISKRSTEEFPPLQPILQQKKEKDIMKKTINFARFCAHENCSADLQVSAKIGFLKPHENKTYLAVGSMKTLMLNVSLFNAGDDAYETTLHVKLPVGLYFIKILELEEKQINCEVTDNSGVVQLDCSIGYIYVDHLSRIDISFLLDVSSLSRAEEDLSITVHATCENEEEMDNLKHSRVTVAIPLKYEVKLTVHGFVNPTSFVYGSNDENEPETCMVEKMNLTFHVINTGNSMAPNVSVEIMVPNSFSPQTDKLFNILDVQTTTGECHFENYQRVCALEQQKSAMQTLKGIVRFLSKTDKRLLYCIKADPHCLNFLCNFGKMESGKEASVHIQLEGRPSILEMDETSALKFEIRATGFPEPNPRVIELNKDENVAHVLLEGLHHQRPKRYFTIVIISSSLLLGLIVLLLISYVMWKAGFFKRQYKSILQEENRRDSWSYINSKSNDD
T1 sequence (P05556 21-798): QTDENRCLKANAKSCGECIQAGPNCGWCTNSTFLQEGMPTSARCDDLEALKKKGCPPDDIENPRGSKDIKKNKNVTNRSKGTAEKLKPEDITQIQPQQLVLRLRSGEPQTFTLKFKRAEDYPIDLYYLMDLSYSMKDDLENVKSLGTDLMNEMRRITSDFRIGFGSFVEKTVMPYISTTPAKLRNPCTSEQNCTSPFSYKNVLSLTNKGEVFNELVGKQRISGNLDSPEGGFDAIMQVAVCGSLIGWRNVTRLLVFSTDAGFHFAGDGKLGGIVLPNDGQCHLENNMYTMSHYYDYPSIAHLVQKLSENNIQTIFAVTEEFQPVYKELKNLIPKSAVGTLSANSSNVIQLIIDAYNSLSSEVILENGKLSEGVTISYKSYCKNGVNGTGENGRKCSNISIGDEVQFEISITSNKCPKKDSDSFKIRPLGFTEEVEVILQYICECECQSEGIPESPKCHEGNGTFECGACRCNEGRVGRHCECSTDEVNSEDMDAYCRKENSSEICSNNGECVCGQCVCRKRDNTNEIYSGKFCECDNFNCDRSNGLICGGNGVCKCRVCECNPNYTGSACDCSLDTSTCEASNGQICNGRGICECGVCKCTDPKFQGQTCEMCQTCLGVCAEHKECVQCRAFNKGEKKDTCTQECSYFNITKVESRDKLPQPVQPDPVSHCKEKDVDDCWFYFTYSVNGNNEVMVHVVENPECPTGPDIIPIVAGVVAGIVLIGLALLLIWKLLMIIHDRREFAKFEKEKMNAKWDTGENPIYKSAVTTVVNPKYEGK
Procedure, shortened: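 Plates bearing CS1 fibronectin peptide coupled to ovalbumin (0.5 μg/ml coat, 3% BSA block) received calcein-labelled Ramos cells plus compound (100 μM stated) for 30 min at 37 °C. Buffer was TBS pH 7.5 with 1 mM Mg2+, Ca2+, Mn2+; bound cells quantified by fluorescence after lysis; […].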

[2] = Table 5, dose required to give 50% inhibition
[3] = Table 7, dose required to give 50% inhibition

Cc1ccc([C@H](CC(=O)O)NC(=O)Nc2c(O)c3ccccc3n(Cc3ccccc3Cl)c2=O)cc1 [(3S)-3-{[({1-[(2-chlorophenyl)methyl]-4-hydroxy-2-oxo-1,2-dihydro-3-quinolinyl}amino)carbonyl]amino}-3-(4-methylphenyl)propanoic acid]
pIC50 ([1]; Table 3, 30 minutes at 37° C.): 8.10 | melting point: 134 to 136 °C

Cc1ccc([C@H](CC(=O)O)NC(=O)Nc2c(O)ccn(Cc3cc(S(C)(=O)=O)ccc3Cl)c2=O)cc1 [(3S)-3-{[({1-[2-chloro-5-(methylsulfonyl)benzyl]-4-hydroxy-2-oxo-1,2-dihydropyridin-3-yl}amino)carbonyl]amino}-3-(4-methylphenyl)propanoic acid]
pIC50 [1, 2]: 8.52

O=C(O)C[C@H](NC(=O)Nc1c(O)c2c(n(Cc3ccccc3Cl)c1=O)CCC2)c1cccc(OCC(F)(F)F)c1
pIC50 ([1]; Table 6, 30 minutes at 37° C.): 7.52

CCOc1cccc([C@H](CC(=O)O)NC(=O)Nc2c(O)c(C)cn(Cc3ccccc3Cl)c2=O)c1 [(3S)-3-[({[1-(2-chlorobenzyl)-4-hydroxy-5-methyl-2-oxo-1,2-dihydropyridin-3-yl]amino}carbonyl)amino]-3-(3-ethoxyphenyl)propanoic acid]
pIC50 [1, 2]: 8.70

CCOc1cccc([C@H](CC(=O)O)NC(=O)Nc2c(O)c(C)cn(Cc3c(Cl)cccc3OCC)c2=O)c1 [(3S)-3-[({[1-(2-chloro-6-ethoxybenzyl)-4-hydroxy-5-methyl-2-oxo-1,2-dihydropyridin-3-yl]amino}carbonyl)amino]-3-(3-ethoxyphenyl)propanoic acid]
pIC50 ([1]; Table 6, 30 minutes at 37° C.): 8.70

O=C(O)C[C@H](NC(=O)Nc1cccc(NCc2cccs2)c1)c1ccc2c(c1)OCO2
pIC50 ([1]; Table 4, 30 minutes at 37° C.): 5.30

O=C(O)C[C@H](NC(=O)Nc1cccn(Cc2cccs2)c1=O)c1cccc(F)c1
pIC50 ([1]; Table 4, 30 minutes at 37° C.): 5.52

CCOc1c(Cl)ccc([C@H](CC(=O)O)NC(=O)Nc2c(O)c3c(n(Cc4ccccc4Cl)c2=O)CCC3)c1Cl
pIC50 [1, 3]: 6.65

COc1ccc(C(C)=O)cc1Cn1ccc(O)c(NC(=O)N[C@@H](CC(=O)O)c2ccc(C)cc2)c1=O
pIC50 ([1]; Table 6, 30 minutes at 37° C.): 7.48

Cc1ccc([C@H](CC(=O)O)NC(=O)Nc2c(Nc3ccc(C(=O)O)cc3)ccn(Cc3ccccc3Cl)c2=O)cc1 [4-{[3-[({[(1S)-2-carboxy-1-(4-methylphenyl)ethyl]amino}carbonyl)amino]-1-(2-chlorobenzyl)-2-oxo-1,2-dihydropyridin-4-yl]amino}benzoic acid]
pIC50 [1, 2]: 8.40

CCCc1cn(Cc2c(Cl)cccc2OCC)c(=O)c(NC(=O)N[C@@H](CC(=O)O)c2cccc(OCC)c2)c1O
pIC50 [1, 3]: 8.22

CCCc1cn(Cc2c(Cl)cccc2OCC)c(=O)c(NC(=O)N[C@@H](CC(=O)O)c2ccccc2)c1O
pIC50 [1, 3]: 7.64

CCOc1cccc([C@H](CC(=O)O)NC(=O)Nc2c(O)c(CC)cn(Cc3c(Cl)cccc3OCC)c2=O)c1
pIC50 ([1]; Table 6, 30 minutes at 37° C.): 8.40

COc1cc(Cn2cc(C)c(O)c(NC(=O)N[C@@H](CC(=O)O)c3ccc(C)cc3)c2=O)cc(OC)c1
pIC50 ([1]; Table 6, 30 minutes at 37° C.): 7.15

O=C(O)C[C@H](NC(=O)Nc1cccn(CCc2cccs2)c1=O)c1ccc2c(c1)OCO2
pIC50 ([1]; Table 4, 30 minutes at 37° C.): 4.82

CCCOc1ccc(Cl)c(Cn2cc(C)c(O)c(NC(=O)N[C@@H](CC(=O)O)c3ccc(C)cc3)c2=O)c1
pIC50 [1, 3]: 8.22

Cc1ccc([C@H](CC(=O)O)NC(=O)Nc2c(O)cc(C)n(Cc3ccccc3)c2=O)cc1
pIC50 ([1]; Table 4, 30 minutes at 37° C.): 7.46

COc1ccc([C@H](CC(=O)O)NC(=O)Nc2cccn(Cc3cccs3)c2=O)cc1
pIC50 ([1]; Table 4, 30 minutes at 37° C.): 6.10

CCOc1cccc(-c2ccc([C@H](CC(=O)O)NC(=O)Nc3c(O)ccn(Cc4ccccc4Cl)c3=O)cc2)c1
pIC50 [1, 3]: 7.57

O=C(O)CC(NC(=O)Nc1c(O)ccn(Cc2ccccc2Cl)c1=O)c1cccs1 (stereo not drawn)
pIC50 ([1]; Table 6, 30 minutes at 37° C.): 7.52

COc1ccc(Cl)c(Cn2cc(C)c(O)c(NC(=O)N[C@@H](CC(=O)O)c3ccc(C)cc3)c2=O)c1 [(3S)-3-[({[1-(2-chloro-5-methoxybenzyl)-4-hydroxy-5-methyl-2-oxo-1,2-dihydropyridin-3-yl]amino}carbonyl)amino]-3-(4-methylphenyl)propanoic acid]
pIC50 [1, 3]: 8.52

Cc1ccc([C@H](CC(=O)O)NC(=O)Nc2c(O)ccn(Cc3ccc(C(F)(F)F)cc3)c2=O)cc1
pIC50 [1, 2]: 7.70

CC(C)(C)c1ccc([C@H](CC(=O)O)NC(=O)Nc2c(O)ccn(Cc3ccccc3Cl)c2=O)cc1
pIC50 ([1]; Table 3, 30 minutes at 37° C.): 6.40

Cc1cn(Cc2ccccc2Cl)c(=O)c(NC(=O)N[C@@H](CC(=O)O)c2cccc(C(F)(F)F)c2)c1O
pIC50 ([1]; Table 6, 30 minutes at 37° C.): 8.00

COc1ccccc1Cn1cccc(NC(=O)N[C@@H](CC(=O)O)c2ccc3c(c2)OCO3)c1=O
pIC50 ([1]; Table 4, 30 minutes at 37° C.): 6.30

Cc1cccc(-c2ccc([C@H](CC(=O)O)NC(=O)Nc3c(O)ccn(Cc4ccccc4Cl)c3=O)cc2)c1
pIC50 [1, 3]: 7.52

Cc1ccc([C@H](CC(=O)O)NC(=O)Nc2cc(C)cn(Cc3ccccc3Cl)c2=O)cc1 [(3S)-3-{[({1-[(2-chlorophenyl)methyl]-5-methyl-2-oxo-1,2-dihydro-3-pyridinyl}amino)carbonyl]amino}-3-(4-methylphenyl)propanoic acid]
pIC50 ([1]; Table 3, 30 minutes at 37° C.): 7.15

O=C(O)C[C@H](NC(=O)Nc1cccn(Cc2ccccc2Cl)c1=O)c1ccc(O)cc1 [(3S)-3-{[({1-[(2-chlorophenyl)methyl]-2-oxo-1,2-dihydro-3-pyridinyl}amino)carbonyl]amino}-3-(4-hydroxyphenyl)propanoic acid]
pIC50 ([1]; Table 4, 30 minutes at 37° C.): 7.00

Cc1ccc([C@H](CC(=O)O)NC(=O)Nc2cccn(Cc3ccc([N+](=O)[O-])cc3)c2=O)cc1
pIC50 ([1]; Table 4, 30 minutes at 37° C.): 6.00

Cc1ccc([C@H](CC(=O)O)NC(=O)Nc2c(C)ccn(Cc3ccccc3Cl)c2=O)cc1 [(3S)-3-{[({1-[(2-chlorophenyl)methyl]-4-methyl-2-oxo-1,2-dihydro-3-pyridinyl}amino)carbonyl]amino}-3-(4-methylphenyl)propanoic acid]
pIC50 ([1]; Table 3, 30 minutes at 37° C.): 8.30

CCCCOc1cccc([C@H](CC(=O)O)NC(=O)Nc2c(O)c(C)cn(Cc3c(Cl)cccc3OCC)c2=O)c1
pIC50 [1, 3]: 8.40

Cc1ccc([C@H](CC(=O)O)NC(=O)Nc2c(O)c(C)cn(Cc3cc(C(F)(F)F)ccc3Cl)c2=O)cc1
pIC50 [1, 3]: 8.22

COc1ccccc1Cn1cccc(NC(=O)N[C@@H](CC(=O)O)c2ccc(C)cc2)c1=O
pIC50 [1, 2]: 6.60

CCOc1ncc([C@H](CC(=O)O)NC(=O)Nc2c(O)c(C)cn(Cc3ccccc3Cl)c2=O)c(OCC)n1
pIC50 [1, 3]: 7.89

Cc1ccc(Cn2cc(C)c(O)c(NC(=O)N[C@@H](CC(=O)O)c3ccc(C)cc3)c2=O)cc1
pIC50 ([1]; Table 6, 30 minutes at 37° C.): 6.82

COc1cc([C@H](CC(=O)O)NC(=O)Nc2c(O)c(C)cn(Cc3ccccc3Cl)c2=O)cc(OC)c1C
pIC50 [1, 3]: 7.92

CCOc1cccc([C@H](CC(=O)O)NC(=O)Nc2c(O)c(C)nn(Cc3c(Cl)cccc3OCC)c2=O)c1 [(3S)-3-[({[2-(2-chloro-6-ethoxybenzyl)-5-hydroxy-6-methyl-3-oxo-2,3-dihydropyridazin-4-yl]amino}carbonyl)amino]-3-(3-ethoxyphenyl)propanoic acid]
pIC50 [1, 3]: 8.52

COc1c(C)cc([C@H](CC(=O)O)NC(=O)Nc2c(O)ccn(Cc3ccccc3Cl)c2=O)cc1C
pIC50 [1, 2]: 7.46

Cc1ccc([C@H](CC(=O)O)NC(=O)Nc2c(O)c(C)cn(Cc3ccccc3Cl)c2=O)cc1C
pIC50 ([1]; Table 6, 30 minutes at 37° C.): 7.82

C[C@H](CC(=O)O)NC(=O)Nc1c(O)ccn(Cc2ccccc2Cl)c1=O
pIC50 [1, 2]: 6.72

Cc1ccc([C@H](CC(=O)O)NC(=O)Nc2c(O)c(C)cn(Cc3c(Cl)cccc3N3CCCCC3)c2=O)cc1 [(3S)-3-({[(1-{[2-chloro-6-tetrahydro-1(2H)-pyridinylphenyl]methyl}-4-hydroxy-5-methyl-2-oxo-1,2-dihydro-3-pyridinyl)amino]carbonyl}amino)-3-(4-methylphenyl)propanoic acid]
pIC50 [1, 3]: 7.05

Cc1ccc([C@H](CC(=O)O)NC(=O)Nc2c(O)ccn(Cc3c(F)cccc3F)c2=O)cc1 [(3S)-3-[({[1-(2,6-difluorobenzyl)-4-hydroxy-2-oxo-1,2-dihydropyridin-3-yl]amino}carbonyl)amino]-3-(4-methylphenyl)propanoic acid]
pIC50 [1, 2]: 8.10

CCOc1cccc([C@H](CC(=O)O)NC(=O)Nc2c(O)c(C)c(C)n(Cc3c(C)cccc3Cl)c2=O)c1
pIC50 [1, 2]: 7.82

Cc1ccc([C@H](CC(=O)O)NC(=O)Nc2c(N3CCN(C)CC3)ccn(Cc3ccccc3Cl)c2=O)cc1
pIC50 ([1]; Table 3, 30 minutes at 37° C.): 8.52

O=C(O)C[C@@H](Cc1ccccn1)NC(=O)Nc1c(O)ccn(Cc2ccccc2Cl)c1=O
pIC50 [1, 2]: 6.65

Cc1ccc([C@H](CC(=O)O)NC(=O)Nc2c(NC(=O)C(C)(C)C)ccn(Cc3ccccc3Cl)c2=O)cc1 [(3S)-3-{[({1-(2-chlorobenzyl)-4-[(2,2-dimethylpropanoyl)amino]-2-oxo-1,2-dihydropyridin-3-yl}amino)carbonyl]amino}-3-(4-methylphenyl)propanoic acid]
pIC50 [1, 2]: 8.00

COc1ccc([C@H](CC(=O)O)NC(=O)Nc2c(O)ccn(Cc3ccccc3Cl)c2=O)cc1OC [(3S)-3-[({[1-(2-chlorobenzyl)-4-hydroxy-2-oxo-1,2-dihydropyridin-3-yl]amino}carbonyl)amino]-3-(3,4-dimethoxyphenyl)propanoic acid]
pIC50 [1, 2]: 8.70

N#Cc1cccc(CN2CCCCC(NC(=O)N[C@@H](CC(=O)O)c3ccc4c(c3)OCO4)C2=O)c1 (stereo partly drawn)
pIC50 ([1]; Table 4, 30 minutes at 37° C.): 7.40

Cc1ccc([C@H](CC(=O)O)NC(=O)Nc2c(O)c(C)cn(Cc3c(Cl)cccc3OCc3ccccc3)c2=O)cc1
pIC50 [1, 3]: 8.00

Cc1ccc([C@H](CC(=O)O)NC(=O)Nc2cccn(Cc3c(C)noc3C)c2=O)cc1
pIC50 ([1]; Table 4, 30 minutes at 37° C.): 5.52

CCCc1ccc([C@H](CC(=O)O)NC(=O)Nc2c(O)c(C)cn(Cc3ccccc3Cl)c2=O)cc1
pIC50 [1, 3]: 7.92

CCCc1cn(Cc2ccccc2Cl)c(=O)c(NC(=O)N[C@@H](CC(=O)O)c2cccc(OCC)c2)c1O [(3S)-3-[({[1-(2-chlorobenzyl)-4-hydroxy-2-oxo-5-propyl-1,2-dihydropyridin-3-yl]amino}carbonyl)amino]-3-(3-ethoxyphenyl)propanoic acid]
pIC50 [1, 2]: 8.52

COc1ccccc1-c1ccc([C@H](CC(=O)O)NC(=O)Nc2c(O)c(C)cn(Cc3ccccc3Cl)c2=O)cc1
pIC50 [1, 3]: 7.60
